Source: US9012489B2, “Phenyl-3-aza-bicyclo[3.1.0]hex-3-yl-methanones and the use thereof as medicament” (Boehringer Ingelheim International GmbH, priority 2011, dated 2015)

Molecular target: T1, GlyT1 transporter (Homo sapiens, UniProt P48067)
T1 construct: endogenously expressing the GlyT1 transporter; host or cells: SK-N-MC human neuroblastoma cells
T1 sequence (P48067 1-706): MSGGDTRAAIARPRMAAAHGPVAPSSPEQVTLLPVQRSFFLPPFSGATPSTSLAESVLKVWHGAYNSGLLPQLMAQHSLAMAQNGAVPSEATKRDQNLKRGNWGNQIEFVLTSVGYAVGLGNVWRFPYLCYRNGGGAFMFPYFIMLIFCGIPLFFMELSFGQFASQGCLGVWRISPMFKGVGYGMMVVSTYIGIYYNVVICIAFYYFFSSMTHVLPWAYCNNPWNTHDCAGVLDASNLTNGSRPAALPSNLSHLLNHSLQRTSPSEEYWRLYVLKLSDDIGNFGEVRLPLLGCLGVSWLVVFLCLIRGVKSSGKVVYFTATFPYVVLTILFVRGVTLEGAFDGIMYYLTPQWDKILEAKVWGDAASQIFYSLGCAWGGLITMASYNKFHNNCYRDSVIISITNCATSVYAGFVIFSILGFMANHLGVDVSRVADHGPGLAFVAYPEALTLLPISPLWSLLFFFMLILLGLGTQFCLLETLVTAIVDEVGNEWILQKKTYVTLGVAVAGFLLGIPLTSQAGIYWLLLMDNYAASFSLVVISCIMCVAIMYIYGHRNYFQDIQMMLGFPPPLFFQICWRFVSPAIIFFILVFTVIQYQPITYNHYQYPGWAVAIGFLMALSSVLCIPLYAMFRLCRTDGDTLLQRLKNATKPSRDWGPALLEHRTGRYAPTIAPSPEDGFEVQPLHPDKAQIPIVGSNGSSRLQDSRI
Assay: GlyT1 assay: 3H-glycine uptake into SK-N-MC cells (Cytostar-T format)
Assay type: cell-based
Conditions: glycine uptake in human SK-N-MC cells endogenously expressing GlyT1; 500 nM glycine, 1% DMSO, signal recorded over 60 min
How it was run: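 Endogenous GlyT1 in human SK-N-MC cells, confluent after 16-18 h, in HBSS with 5 mM alanine. Compounds preincubated about 5-10 min, then 500 nM glycine (half ³H) added, 1% DMSO. Scintillation-proximity uptake recorded kinetically over 60 min; IC50 from linear-range slopes over 8 concentrations, nonspecific uptake defined with 10 μM RG-1678.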

| SMILES | IC50 [nM] |
| --- | --- |
| CCS(=O)(=O)c1ccc(O[C@H](C)C(F)(F)F)c(C(=O)N2CC3CC3(c3cc(C(F)(F)F)on3)C2)c1 (single isomer, unassigned) [Example 106, [5-Ethanesulfonyl-2-(2,2,2-trifluoro-1-methyl-ethoxy)-phenyl]-[1-(5-trifluoromethyl-isoxazol-3-yl)-3-aza-bicyclo[3.1.0]hex-3-yl]-methanone] | 248 |
| C[C@@H](Oc1ccc(S(C)(=O)=O)cc1C(=O)N1CC2CC2(c2nc(C(F)(F)F)no2)C1)C(F)(F)F (single isomer, unassigned) [Example 87, [5-Methanesulfonyl-2-(2,2,2-trifluoro-1-methyl-ethoxy)-phenyl]-[1-(3-trifluoromethyl-[1,2,4]oxadiazol-5-yl)-3-aza-bicyclo[3.1.0]hex-3-yl]-methanone] | 2360 |
| C[C@H](Oc1ccc(S(C)(=O)=O)cc1C(=O)N1CC2CC2(c2cncc(C(F)(F)F)c2)C1)C(F)(F)F (mixture of isomers) [Example 53, [5-Methanesulfonyl-2-(2,2,2-trifluoro-1-methyl-ethoxy)-phenyl]-[1-(5-trifluoromethyl-pyridin-3-yl)-3-aza-bicyclo[3.1.0]hex-3-yl]-methanone] | 70 |
| Cc1noc(C23CC2CN(C(=O)c2cc(S(C)(=O)=O)ccc2O[C@H](C)C(F)(F)F)C3)n1 (mixture of isomers) [Example 35, [5-Methanesulfonyl-2-(2,2,2-trifluoro-1-methyl-ethoxy)-phenyl]-[1-(3-methyl-[1,2,4]oxadiazol-5-yl)-3-aza-bicyclo[3.1.0]hex-3-yl]-methanone] | 101 |
